Read-outs that look alike come from different tables or passages of the source.
Tests used:
[1] = system: mouse model of beta-thalassemia; details: cited from earlier work
[2] = target: T1, Human pyruvate kinase R (PKR) (Homo sapiens, UniProt P30613); assay: Biochemical assay for activation of pyruvate kinase R (Kinase-Glo luminescence, ATP generation); details: for Emax: read-out: PKR % activation, maximal activation level achieved with each compound relative to the activation level achieved by AG-348 @ 10 μM
T1 construct: Human pyruvate kinase R (PKR), residues 14-574; 6xHis-8xArg-SUMO (N, cleaved yes); host or cells: E. coli
Procedure, shortened: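 Recombinant human PKR (residues 14-574) expressed in E. coli with His-Arg-SUMO tag, tag cleaved, purified by Ni-NTA, anion exchange and size exclusion. Activation read as ATP generation by Kinase-Glo luminescence.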

T1 sequence (P30613 14-574): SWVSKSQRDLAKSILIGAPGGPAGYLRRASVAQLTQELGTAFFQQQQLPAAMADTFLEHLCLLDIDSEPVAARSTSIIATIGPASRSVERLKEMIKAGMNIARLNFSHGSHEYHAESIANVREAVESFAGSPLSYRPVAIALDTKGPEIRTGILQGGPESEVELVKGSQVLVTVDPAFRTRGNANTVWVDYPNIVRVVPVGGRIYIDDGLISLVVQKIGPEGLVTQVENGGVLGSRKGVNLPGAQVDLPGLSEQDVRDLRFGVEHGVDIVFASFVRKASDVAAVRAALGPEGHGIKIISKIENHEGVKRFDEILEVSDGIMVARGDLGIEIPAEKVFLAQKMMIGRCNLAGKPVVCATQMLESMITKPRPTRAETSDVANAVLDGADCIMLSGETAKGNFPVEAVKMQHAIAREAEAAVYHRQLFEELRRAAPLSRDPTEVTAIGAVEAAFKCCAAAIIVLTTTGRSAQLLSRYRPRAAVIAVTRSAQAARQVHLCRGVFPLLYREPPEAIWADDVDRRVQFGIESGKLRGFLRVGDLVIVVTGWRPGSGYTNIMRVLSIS

O=C(c1ccc(NS(=O)(=O)c2cccc3cccnc23)cc1)N1CCN(CC2CC2)CC1 [AG-348, Mitapivat]
ATP levels [1]: increased | PK activity [1]: increased | RBC parameters [1]: improved

Cc1c(S(=O)(=O)n2cc3c(n2)CN(C(=O)[C@@H](CO)c2ccccc2F)C3)cnn1CCF [Compound 97, (2R)-1-{2-[1-(2-fluoroethyl)-5-methylpyrazol-4-ylsulfonyl]-4H,6H-pyrrolo[3,4-c]pyrazol-5-yl}-2-(2-fluorophenyl)-3-hydroxypropan-1-one]
AC50 [2]: 550 nM | Emax [2]: 102%

O=C([C@@H](CO)c1ccccc1F)N1Cc2cn(S(=O)(=O)c3cnn(CC(F)(F)F)c3)nc2C1 [Compound 33, (2R)-2-(2-fluorophenyl)-3-hydroxy-1-[2-[1-(2,2,2-trifluoroethyl)pyrazol-4-ylsulfonyl]-4H,6H-pyrrolo[3,4-c]pyrazol-5-yl]propan-1-one]
AC50 ([2]; PKR AC50 (nM), 0.1 nM PKR, 0.3 mM ADP, 0.1 mM PEP, 1% DMSO): 450 nM | Emax [2]: 89%

From patent US11566030B2, “Substituted 2,6-dihydropyrrolo[3,4-c]pyrazoles as pyruvate kinase activators” (priority 2021, dated 2023)
